This is an account of results in patent US20150018305A1, “SIRTUIN INDUCER, TISSUE REPAIRING AGENT, HEPATOCYTE GROWTH FACTOR INDUCER, TISSUE HOMEOSTASIS MAINTENANCE AGENT, AND TLR4 AGONIST, HAVING HYALURONIC ACID FRAGMENT AS ACTIVE INGREDIENT” (HYALURONAN RESEARCH INSTITUTE, INC., priority 2012, published 2015).

The structures appear in SMILES notation.

The subject of series [1] is activated (phosphorylated) NF-kappaB. Description: NF-kappaB expression in TNF-α treated human large intestine epithelial cells, fluorescent staining (Test Example 9). Conditions: TNF-α treatment, 10 ng/ml test substance, 24 hours. Format: cell-based. As to the method:
It was investigated whether the expression of NF-kappaB in human large intestine epithelial cells (HT29 cells) when subjected to TNF-α treatment is affected by treatment with the hyaluronic acid fragment. NF-kappaB is a transcription factor involved in inflammation, tissue destruction, and the like.
DMEM culture medium (made by Wako Pure Chemical Industries, Ltd.) to which TNF-α and the hyaluronic acid fragment were added, and DMEM culture medium from which these were omitted, were prepared, and human large intestine epithelial cells were treated for 24 hours in these culture media. Thereafter, the cells were stained with an antibody that recognizes activated (phosphorylated) NF-kappaB.
The vertical axis of the graph indicates fluorescent intensity. It may be appreciated that, in cells to which four- to eight-unit hyaluronic acid fragments were added, the expression level of NF-kappaB is reduced in statistically significant fashion.

In series [2] the test system is Hepatocyte growth factor expression (mRNA). Briefly: Induction of hepatocyte growth factor in human epidermal keratinocytes, DNA microarray (Test Example 13). The class given is cell-based. Conditions: 10 ng/ml, 24 hours; Cy5, DNA microarray. As to the method:
Human epidermal keratinocytes (normal human keratinocytes from a person) were cultured respectively in a culture medium containing 10 ng/ml of four-unit hyaluronic acid fragment (4mer), and a culture medium containing no hyaluronic acid fragments (untreated), for 24 hours. For the culture medium, a serum-free medium for use with normal human keratinocytes, made by DS Pharma Biomedical Co. Ltd. was employed. After culture, the cells were recovered and analyzed with a DNA microarray (DNA chip).

For series [3], the system named is sirtuin enzymatic activity (sirt1 enzymatic activity). Briefly: Sirtuin enzymatic activity in cell solution of human epidermal keratinocytes, CycLex SIRT1/Sir2 Deacetylase Fluorometric Assay Kit (Test Example 2). The class given is cell-based. Conditions: 10 ng/ml final concentration; cell crude extract. As to the method: Human epidermal keratinocytes were treated in the same manner as in Test Example 1, except that the final concentration of the hyaluronic acid fragment was 10 ng/ml, the size thereof being four sugar units (4mer), six sugar units (6mer), or 10 sugar units (10mer), while measuring the sirtuin enzymatic activity (sirt1 enzymatic activity) in the cell solution thereof. For purposes of comparison, 10 kDa or 900 kDa hyaluronic acid, and resveratrol, a known sirtuin activator, were likewise tested at 10 ng/ml final concentration. A human sirtuin recombinant protein (recombinant human sirt1) produced through genetic recombination techniques was used as a substance for verification of the measurement system. Sirtuin enzymatic activity in the cell crude extract was measured with the CycLex SIRT1/Sir2 Deacetylase Fluorometric Assay Kit (trade name of CycLex), following the protocol of the kit.

In series [4] the test system is liver function. Briefly: Concanavalin A liver damage model, blood GOT and GPT (Test Example 15). Format: in vivo. As to conditions: concanavalin A 20 mg/kg caudal vein, fragment oral, after 24 hours, 20-month old female Balb/c mice. The method, then: The effect of action of the hyaluronic acid fragment on the liver of aged […] was investigated. Specifically, 20-month old (aged) female Balb/c mice were administered through the caudal vein with concanavalin A (20 mg/kg of body weight) one time, as a liver damage model. Subsequent to administration of concanavalin A, hyaluronic acid fragment (4mer or L3mer) were administered orally, and the effect thereof was investigated. Impairment of liver function was evaluated after 24 hours, by drawing blood and measuring the GOT and GPT values in the blood.

The subject of series [5] is human neural stem cells (neurospheres). Description: Action on human neural stem cells, Nestin/Tubulin double staining (Test Example 7). The class given is cell-based. As to conditions: 10 ng/ml, 12 days. As to the method: Human neural stem cells (neurospheres) (trade name Gibco Human Neural Stem Cells (H9-Derived) made by Gibco) were cultured in Neurobasal Media (trade name, made by Gibco) culture medium at 37° C. under 5% CO2, and the cells were recovered by trypsin treatment. The cells were then inoculated into a 96-well plate (100 μL per well) and cultured overnight. Following completion of culture, the culture broth from each well was transferred to Neurobasal Media (trade name, made by Gibco) culture medium to which no hyaluronic acid fragments were added, or to the same medium to which hyaluronic acid fragment (L3mer) had been added to a final concentration of 10 ng/ml, and cultured for 12 days
After 12 days had passed, the cells in each well were double-stained with anti human Nestin antibody and anti human Tubulin antibody. Nestin is a protein that is specifically expressed in neural stem cells, and is a neural stem cell marker. The stained cells were observed under a microscope (made by Nikon), taking photographs of cell morphology and stained images of cells.

The test system of series [6] is rat bone marrow mesenchymal stem cells. Description: Hydrogen peroxide induced aging of rat bone marrow mesenchymal stem cells, PI dead cell count (Test Example 21). The class given is cell-based. Conditions: 2 hours. As to the method: It was investigated whether the process, in which rat bone marrow mesenchymal stem cells experienced cellular aging (increased cell death) when treated with hydrogen peroxide, is affected by treatment with the hyaluronic acid fragment. Specifically, the following test was performed.
Using a DMEM culture medium (made by Wako Pure Chemical Industries, Ltd.), rat bone marrow mesenchymal stem cells were cultured by usual methods at 37° C. under 5% CO2. Hydrogen peroxide was added to the culture medium to a final concentration of 1 μM to bring about stimulation for a 15-minute period, and the culture broth was then transferred to DMEM culture medium containing no added hyaluronic acid fragments; to DMEM culture medium containing hyaluronic acid fragment (L3mer) added to a final concentration of 100 ng/ml; or to DMEM culture medium containing the hyaluronic acid fragment (L3mer) plus TLR4/MD2 added to a final concentration of 10 μg/ml, and cultured for 2 hours.
After 2 hours had passed, PI ([…]), which emits red fluorescence upon uptake into dead cells, was added to the culture medium to a final concentration of 5 μg/ml, and after incubation for 15 minutes, the condition of appearance of dead cells was examined with a fluorescence microscope.

In series [7] the test system is human neural stem cells (neurospheres). Description: Hydrogen peroxide induced aging of human neural stem cells, microscopy (Test Example 20). The class given is cell-based. As to conditions: 24 hours. As to the method:
It was investigated whether the process, in which human neural stem cells (neurospheres) experienced cellular aging (vacuolar degeneration and hypertrophy) when treated with hydrogen peroxide, is affected by treatment with the hyaluronic acid fragment. Specifically, the following test was performed.
Human neural stem cells (neurospheres) (trade name Gibco Human Neural Stem Cells (H9-Derived) made by Gibco) were cultured in Neurobasal Media (trade name, made by Gibco) culture medium at 37° C. under 5% CO2. Hydrogen peroxide was added to the culture medium to a final concentration of 10 μM to bring about stimulation for a 15-minute period, and the culture broth was then transferred to Neurobasal Media culture medium (made by Gibco) containing no hyaluronic acid fragments; to the same culture medium containing hyaluronic acid fragment (L3mer) in a final concentration of 100 ng/ml; or to the same culture medium containing hyaluronic acid fragment (L3mer) plus TLR4/MD2 added to a final concentration of 10 μg/ml, and cultured for 24 hours.
After 24 hours, the cells were examined with an inverted microscope.

Where [8] appears, read: 100 ng/ml plus TLR4/MD2 10 μg/ml.

Regarding `CC(=O)N[C@H]1[C@H](O[C@H]2[C@H](O)[C@@H](O)[C@H](O[C@H]3[C@H](O)[C@@H](CO)OC(O)[C@@H]3NC(C)=O)O[C@@H]2C(=O)O)O[C@H](CO)[C@@H](O)[C@@H]1O[C@@H]1O[C@H](C(=O)O)[C@@H](O)[C@H](O)[C@H]1O` (stereo partly shown) [4mer, GlcA(-GlcNAc-GlcA)1-GlcNAc], the “expression level of NF-kappaB (fluorescent intensity)” value in series [1] is listed as “inhibited to the greatest extent”. Moreover, the “Fluorescent intensity, Hepatocyte growth factor expression in keratinocytes (mRNA)” value in series [2] came to 200.40. Also, the “sirtuin enzymatic activity (sirt1 enzymatic activity) compared with negative control” value in series [3] was “approximately triple”.
With `CC(=O)NC1C(O[C@@H]2OC(C(=O)O)[C@@H](O)C(O)C2O)[C@H](O)C(CO)O[C@H]1O[C@@H]1C(C(=O)O)O[C@@H](OCCCN=[N+]=[N-])C(O)C1O` (stereo partly shown) [L3mer], in series [4], the “impairment of liver function (GOT values in the blood)” value was “markedly better with the L3mer than with the 4mer”. For the same molecule, in series [5], the “expression of Nestin and Tubulin” value is “expression of both Nestin and Tubulin was confirmed”; the “process formation (morphology)” value is listed as “process formation was confirmed”. In addition, the “suppression of cell death with TLR4/MD2 added” value in series [6] (setting [8]) is recorded as “inhibited by addition of TLR4/MD2”. Moreover, the “hydrogen peroxide-induced cellular aging (increased cell death, dead cells per unit visual field)” value in series [6] (hydrogen peroxide 1 μM, 100 ng/ml, PI staining) is given as “suppressed”. Further, the “suppression of cellular aging with TLR4/MD2 added” value in series [7] (setting [8]) was “inhibited by addition of TLR4/MD2”. For the same molecule, the “hydrogen peroxide-induced cellular aging (vacuolar degeneration and hypertrophy)” value in series [7] (hydrogen peroxide 10 μM, 100 ng/ml) is listed as “suppressed”.
